The source of these data is PubChem BioAssay (NCI).

Among the test systems are CCRF-CEM leukemia; DU-145 prostate; HCC-2998 colon; MDA-MB-435; NCI/ADR-RES ovarian; OVCAR-3 ovarian; OVCAR-4 ovarian; OVCAR-8 ovarian; SF-539 CNS; SNB-75 CNS.
Common to all, as to experiment: NCI tumour cell line growth inhibition, 48 h

“And” between values parts separate entries of the source, which are not always exact repeats. Identical values can stand only once.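 Compound exposure: 48 hours, 5 concentrations, 96-well plates. GI50 marks 50% less growth. TGI denotes the concentration required for complete inhibition of growth.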 Where a SMILES comes first, the peptide text is derived from it. [ ]: non-standard residue; d: D form. 2Nal = N[CH](Cc1ccc2ccccc2c1)C(=O)O A value given as a limit tells only on which side of the number the result lay.

For the compound `CCOC(=O)C(=Cc1ccc(Br)cc1)C(=O)OCC`, the GI50 with CCRF-CEM leukemia was 0.838 µM; in the assay with DU-145 prostate it was 1.68 µM; in the assay on HCC-2998 colon, 1.91 µM; in the assay with MDA-MB-435, 2.16 µM; with NCI/ADR-RES ovarian it was 2.78 µM; in the assay on OVCAR-3 ovarian, 1.47 µM. In addition, the GI50 is 3.06 µM in the assay on OVCAR-4 ovarian, 2.36 µM with OVCAR-8 ovarian, 1.72 µM in the assay with SF-539 CNS and 1.59 µM in the assay with SNB-75 CNS. Moreover, the TGI was 7.34 µM with CCRF-CEM leukemia; 3.07 µM with DU-145 prostate; 3.48 µM in the assay with HCC-2998 colon; 6.91 µM with MDA-MB-435; > 20.4 µM in the assay with NCI/ADR-RES ovarian; 2.92 µM in the assay on OVCAR-3 ovarian. Further, the TGI in the assay on OVCAR-4 ovarian came to 10.4 µM; with OVCAR-8 ovarian, 6.79 µM; in the assay with SF-539 CNS, 3.13 µM; in the assay on SNB-75 CNS, 3.17 µM.
On to `CC(=O)N1c2ccccc2C23CCN4CC5=CCOC(O)C(C5CC42)C13` (centres undefined), for which the TGI in the assay with CCRF-CEM leukemia, in the assay with DU-145 prostate, in the assay on HCC-2998 colon, in the assay on MDA-MB-435, in the assay with NCI/ADR-RES ovarian and with OVCAR-3 ovarian was > 100 µM each time. Besides, the TGI in the assay on OVCAR-4 ovarian, in the assay with OVCAR-8 ovarian, with SF-539 CNS and with SNB-75 CNS was > 100 µM each time.
As to `O=C(Oc1ccc([N+](=O)[O-])cc1)N1CCC(C(O)(c2ccc3c(c2)OCO3)c2ccc3c(c2)OCO3)CC1`, the GI50 in the assay with CCRF-CEM leukemia, in the assay with DU-145 prostate, in the assay on HCC-2998 colon, in the assay on MDA-MB-435, in the assay on NCI/ADR-RES ovarian and in the assay on OVCAR-3 ovarian was > 100 µM in each case. Moreover, the GI50 in the assay on OVCAR-4 ovarian, in the assay on OVCAR-8 ovarian, in the assay on SF-539 CNS and in the assay on SNB-75 CNS was > 100 µM in each case. In addition, the TGI in the assay with CCRF-CEM leukemia, in the assay on DU-145 prostate, with HCC-2998 colon, with MDA-MB-435, with NCI/ADR-RES ovarian and in the assay on OVCAR-3 ovarian was > 100 µM each time. Further, the TGI in the assay on OVCAR-4 ovarian, in the assay on OVCAR-8 ovarian, in the assay on SF-539 CNS and with SNB-75 CNS was > 100 µM in each case.
On to `CC(NC(=O)C(N)Cc1ccccc1)C(=O)NC(Cc1ccc(O)cc1)C(=O)NC(Cc1c[nH]c2ccccc12)C(=O)NC(CCCCN)C(=O)NC(C(=O)NC(C)C(=O)NC(Cc1ccc2ccccc2c1)C(N)=O)C(C)C` (centres undefined) (H-FAYWKVA[2Nal]-NH2; configuration not given here), for which the GI50 with CCRF-CEM leukemia was 16 µM; with HCC-2998 colon, 29.7 µM; in the assay on OVCAR-3 ovarian, 18.8 µM; with OVCAR-4 ovarian it was 27.2 µM; with OVCAR-8 ovarian, 37.2 µM; with SF-539 CNS, 21.8 µM. The TGI in the assay with CCRF-CEM leukemia is > 12.5 µM and 29.4 µM; in the assay on DU-145 prostate, > 12.5 µM; in the assay on HCC-2998 colon it was > 100 µM; in the assay on MDA-MB-435, > 12.5 µM; in the assay with NCI/ADR-RES ovarian it was > 12.5 µM; in the assay on OVCAR-3 ovarian it was > 12.5 µM and 43.2 µM. Also, the TGI in the assay with OVCAR-4 ovarian was > 12.5 µM and 84.3 µM; in the assay on OVCAR-8 ovarian, > 100 µM; in the assay on SF-539 CNS it was > 12.5 µM and 62.4 µM; in the assay on SNB-75 CNS it was 71.8 µM.
For the compound `N#Cc1cccc(Nc2nccc(-c3cnn4ncccc34)n2)c1`, the GI50 with CCRF-CEM leukemia was 0.006 µM; in the assay on DU-145 prostate, 0.00661 µM; in the assay with HCC-2998 colon, 0.00695 µM; with MDA-MB-435 it was 0.00628 µM; with NCI/ADR-RES ovarian it was 0.00697 µM; with OVCAR-3 ovarian it was 0.00541 µM. Moreover, the GI50 was 0.0322 µM with OVCAR-4 ovarian, 0.0065 µM with OVCAR-8 ovarian, 0.00381 µM in the assay with SF-539 CNS and 0.00494 µM in the assay with SNB-75 CNS. Besides, the TGI is > 25 µM in the assay with CCRF-CEM leukemia; 3.46 µM in the assay with DU-145 prostate; 0.0241 µM in the assay with HCC-2998 colon; 0.0239 µM in the assay on MDA-MB-435; 0.015 µM with OVCAR-3 ovarian; > 25 µM with OVCAR-8 ovarian. Moreover, the TGI in the assay on SF-539 CNS came out at 0.0154 µM; with SNB-75 CNS it was 0.012 µM.
`Cc1cc(N2CCN(C)CC2)nc(NC2CCCC(Nc3ccnc4cc(Cl)ccc34)C2)n1` (centres undefined): the GI50 was 1.78 µM in the assay on CCRF-CEM leukemia; 3.05 µM in the assay on DU-145 prostate; 1.97 µM in the assay on HCC-2998 colon; 1.8 µM in the assay on MDA-MB-435; 3.34 µM with NCI/ADR-RES ovarian; 2.25 µM in the assay on OVCAR-3 ovarian. Further, the GI50 in the assay with OVCAR-4 ovarian is 1.9 µM; in the assay on OVCAR-8 ovarian, 3.75 µM; in the assay on SF-539 CNS, 1.68 µM; in the assay with SNB-75 CNS it was 1.65 µM. Also, the TGI in the assay on CCRF-CEM leukemia turned out to be 7.34 µM; in the assay on DU-145 prostate, 12.7 µM; in the assay on HCC-2998 colon, 7.4 µM; with MDA-MB-435, 3.37 µM; in the assay on NCI/ADR-RES ovarian it was 13.3 µM; in the assay with OVCAR-3 ovarian, 5.75 µM. The TGI in the assay with OVCAR-4 ovarian was 6.24 µM; in the assay with OVCAR-8 ovarian, 15.5 µM; in the assay on SF-539 CNS, 3.31 µM; with SNB-75 CNS it was 5 µM.
In the case of `O=C1Nc2ccccc2SC1C1SC(=S)N(Cc2ccccc2)C1=O` (centres undefined), the GI50 with CCRF-CEM leukemia was 1.76 µM; in the assay with DU-145 prostate, 2.26 µM; in the assay with HCC-2998 colon, 5.33 µM; in the assay on MDA-MB-435, 3.04 µM; with NCI/ADR-RES ovarian it was 23.6 µM; with OVCAR-3 ovarian, 2.37 µM. Further, the GI50 in the assay with OVCAR-4 ovarian is 13.9 µM; with OVCAR-8 ovarian, 23.7 µM; with SF-539 CNS, 3.79 µM; with SNB-75 CNS, 10.5 µM. For the same compound, the TGI was > 29.8 µM in the assay on CCRF-CEM leukemia; 5.58 µM with DU-145 prostate; 17.1 µM with HCC-2998 colon; 15.5 µM in the assay with MDA-MB-435; 97.4 µM with NCI/ADR-RES ovarian; 6.31 µM with OVCAR-3 ovarian. In addition, the TGI is 33.7 µM in the assay with OVCAR-4 ovarian, > 88.2 µM with OVCAR-8 ovarian, 12.8 µM in the assay on SF-539 CNS and 24.6 µM in the assay on SNB-75 CNS.
As to `COc1cc2cc(C(=O)O)[nH]c2cc1OCc1ccccc1`, the GI50 with CCRF-CEM leukemia, in the assay on DU-145 prostate, in the assay on HCC-2998 colon, in the assay with MDA-MB-435, with NCI/ADR-RES ovarian and in the assay on OVCAR-3 ovarian was > 100 µM in each case. For the same compound, the GI50 in the assay with OVCAR-4 ovarian, in the assay with OVCAR-8 ovarian, in the assay with SF-539 CNS and in the assay with SNB-75 CNS was > 100 µM in each case. Also, the TGI in the assay with CCRF-CEM leukemia, in the assay with DU-145 prostate, with HCC-2998 colon, in the assay with MDA-MB-435, with NCI/ADR-RES ovarian and in the assay on OVCAR-3 ovarian was > 100 µM in each case. The TGI in the assay on OVCAR-4 ovarian, in the assay on OVCAR-8 ovarian, with SF-539 CNS and in the assay with SNB-75 CNS was > 100 µM throughout.
Consider `Cc1cc(NC(=O)CCc2ccc(N3C(N)=NC(N)=NC3(C)C)cc2)ccc1S(=O)(=O)F`, for which the GI50 is 0.243 µM with CCRF-CEM leukemia; 2.63 µM in the assay on DU-145 prostate; 0.709 µM with HCC-2998 colon; 0.18 µM with MDA-MB-435; > 100 µM in the assay with NCI/ADR-RES ovarian; 12.2 µM in the assay on OVCAR-3 ovarian. Further, the GI50 is 12.3 µM in the assay on OVCAR-4 ovarian, 0.6 µM in the assay with OVCAR-8 ovarian, 1 µM in the assay with SF-539 CNS and 0.517 µM with SNB-75 CNS. Also, the TGI in the assay with CCRF-CEM leukemia, in the assay with DU-145 prostate, with HCC-2998 colon, in the assay on MDA-MB-435, in the assay on NCI/ADR-RES ovarian and with OVCAR-3 ovarian was > 100 µM throughout. Besides, the TGI in the assay with OVCAR-4 ovarian was > 100 µM; in the assay on OVCAR-8 ovarian, > 100 µM; with SF-539 CNS, 26.4 µM; with SNB-75 CNS it was 80.1 µM.
